# Measurements as given in patent US8945864B2, “Method of determining 1,5-anhydroglucitol, and reagent composition for determining 1,5-anhydroglucitol” (Ikeda Food Research Co., Ltd., priority 2006, dated 2015).
# Like-named read-outs stand apart in the source and are kept apart here.
# Experiments:
# sorbose dehydrogenase = sorbose dehydrogenase (Sinorhizobium meliloti, UniProt Q92YU0); assay: Inhibitor test: additive in the reaction solution for the activity measurement; type: biochemical, Sinorhizobium sp. 97507
# [1] = substrate: OC[C@H]1OC[C@H](O)[C@@H](O)[C@@H]1O; assay: Km value of sorbose dehydrogenase; type: biochemical, Sinorhizobium sp. 97507; conditions: other: Km of the sorbose dehydrogenase to the substrate; pH 7.0; 37.0 °C
# Description: (§1) One mL of a 0.1 M potassium phosphate buffer, pH 7.0, 1.0 mL of 1.0 M L-sorbose, 0.14 mL of 3 mM 2,6-dichlorophenol indophenol (DCIP), 0.2 mL of 3 mM 1-methoxy-5-methylphenazinium methyl sulfate, and 0.61 mL of water were added to a 3 mL quartz cell, and the quartz cell was set to a spectrophotometer equipped with a thermostat cell holder, and incubated at 37° C. for ten minutes. Then, 0.05 mL of the enzyme solution was added to the quartz cell, and changes in absorbance of DCIP at 600 nm (AABS600/min) was measured at 37° C. As the molar extinction coefficient of DCIP at pH 7.0 is known as 16.3 mM^−1, and the amount of enzyme that reduced 1 μmol of DCIP for one minute is defined as one unit. Following the definition, the concentration of enzyme activity was calculated based on the following equation. enzyme activity (units/mL)=(−ΔABS600/min×3.0×dilution rate)/(16.3×1.0×0.05)
# (§2) Measurement conditions in the above “method of measuring enzyme activity” were suitably modified as necessary, and the optimal pH, pH stability, optimal temperature, temperature stability, substrate specificity, Km value, total molecular weight, subunit molecular weight, inhibitor, and product of the enzyme reaction were identified. The properties of the enzyme were evaluated in accordance with the following tests.
# […]. […]
# [2] = substrate: OCC1(O)OC[C@H](O)[C@@H](O)[C@@H]1O; assay: Km value of sorbose dehydrogenase; type: biochemical, Sinorhizobium sp. 97507; conditions: other: Km of the sorbose dehydrogenase to the substrate; pH 7.0; 37.0 °C
# Description: as §1, §2
# […]. […]
# [3] = Optimal temperature of sorbose dehydrogenase; type: biochemical; conditions: 50 mM potassium phosphate buffer, pH 7.0; 35° C. to 70° C.; FIG. 5
# [4] = Temperature stability of sorbose dehydrogenase; type: physicochemical; conditions: pH 7.0, FIG. 6
# [5] = Optimal pH of sorbose dehydrogenase; type: biochemical; conditions: buffers pH 3.71-9.11, 33.3 mM; FIG. 3
# [6] = additive final concentration 1.0 mM, control without additive = 100%
molecule,measurement,setting,value
[Cl][Pb][Cl] [PbCl2],Relative activity (%),sorbose dehydrogenase,83%
[Cl][Sn][Cl] [SnCl2],Relative activity (%),"sorbose dehydrogenase; additive final concentration 0.5 mM, control without additive = 100%",86%
O=S(=O)(O)c1cc(O)c(O)c(S(=O)(=O)O)c1 [Tiron],activity at 1000 µM,"sorbose dehydrogenase; additive final concentration 1.0 mM, control without additive = 100%, read-out: Relative activity (%)",89%
NC(N)=O [Urea],Relative activity (%),sorbose dehydrogenase; [6],92%
[Cl-].[Cl-].[Zn+2] [ZnCl2],Relative activity (%),sorbose dehydrogenase; [6],98%
O=C(O)C(O)C(O)C(=O)O (stereo not drawn) [meso-tartaric acid],Relative activity (%),sorbose dehydrogenase; [6],94%
Acriflavin,Relative activity (%),sorbose dehydrogenase; [6],66%
CoCl2,Relative activity (%),sorbose dehydrogenase,86%
Triton X-100,Relative activity (%),sorbose dehydrogenase; [6],39%
sorbose dehydrogenase (Sinorhizobium meliloti 1021) (protein) MMEGFDYVIVGGGSSGCVLAARLSENPSVRVCLIEAGGRDRHPLIHMPVGFAKLTAGPMTWGLTTAPQKHANNREIPYAQARVLGGGSSINAEVYTRGHPRDYDRWVEEGADGWSFQEVKPYFLRSEGNTILSGEWHGTDGPLGVSNLPDPQPMTRAFVQSCQELGIPYNPDFNGPVQEGAGVYQTTIRNSRRCSAAVGYLRPALARKNLMLITGALVLRIVFQGRRAVGVEYSTGGAAKIARAESEVLVTSGAIGTPKLMMLSGVGPAASLRSHGIDVVQDMAGVGQNLHDHFGVDIVAELKGHDSLDKYNKFHWMLLAGIEYALFKSGPVASNVVEGGAFWYGDRASPYPDLQFHFLAGAGAEAGVPSVPKGSSGVTLNSYTVRPKSRGSVTLRSADPRALPIVDPNFLDDPDDLRISVEGIRISREIFGQPSLQKYIKTIRFPDESVRTQADFEAYARQYGRTSYHPTCTCKMGRDDMSVVDPQLRVHGLDGIRICDSSVMPSLVGSNTNAATIMIGEKAADLIRGNI,Km,[1],82.5 mM
same,Km,[2],65.6 mM
"sorbose dehydrogenase: recombinant sorbose dehydrogenase from Sinorhizobium sp. 97507, amino acid sequence SEQ ID NO: 2, produced in E. coli JM109/pUCNNT2_AGD1 (protein, Sinorhizobium sp. 97507) MMEGFDYVIVGGGSSGCVLAARLSENPSVRVCLIEAGGRDRHPLIHMPVGFAKLTAGPMTWGLTTAPQKHANNREIPYAQARVLGGGSSINAEVYTRGHPRDYDRWVEEGADGWSFQEVKPYFLRSEGNTILSGEWHGTDGPLGVSNLPDPQPMTRAFVQSCQELGIPYNPDFNGPVQEGAGVYQTTIRNSRRCSAAVGYLRPALARKNLMLITGALVLRIVFQGRRAVGVEYSTGGAAKIARAESEVLVTSGAIGTPKLMMLSGVGPAASLRSHGIDVVQDMAGVGQNLHDHFGVDIVAELKGHDSLDKYNKFHWMLLAGIEYALFKSGPVASNVVEGGAFWYGDRASPYPDLQFHFLAGAGAEAGVPSVPKGSSGVTLNSYTVRPKSRGSVTLRSADPRALPIVDPNFLDDPDDLRISVEGIRISREIFGQPSLQKYIKTIRFPDESVRTQADFEAYARQYGRTSYHPTCTCKMGRDDMSVVDPQLRVHGLDGIRICDSSVMPSLVGSNTNAATIMIGEKAADLIRGNI",Optimal temperature,[3],around 60 °C
same,Residual ratio of enzyme activity,[4]; 45° C. for ten minutes,77%
same,Temperature at which the enzyme is stable,[4]; ten minutes,≤ 45 °C
same,Optimal pH,[5],8.0
